Data set [1] can be described thus: Microsomal stability in human liver microsomes assessed as intrinsic clearance and measured upto 60 mins in presence of NADPH by LC-MS/MS analysis. To be noted: read-out: CLH. The class given is ADME, Microsome. In general terms: Microsomes from liver hold many membrane-bound enzymes, among them those of drug oxidation.
A short description of data set [2]: Metabolic stability in human hepatocytes assessed as intrinsic clearance and measured upto 60 mins in presence of NADPH by LC-MS/MS analysis. Format: ADME, cell-based, Hepatocyte. The following applies: read-out: CLH.
The nature of data set [3]: Metabolic stability in human plasma assessed as half life and measured upto 240 mins by LC-MS/MS analysis. Format: ADME, cell-free.

Bounds are passed on as bounds.

For orientation: half-life means how long it takes for the measured level to halve.

Consider `O=C1CCC(N2Cc3ccccc3C2=O)C(=O)N1` (configuration not stated), for which the CLint scaled in data set [1] is under 6.1 mL/min/kg; in data set [2] it was under 9.6 mL/min/kg. The half-life in data set [3] was 1.98 h.

Consider `O=C1CCC(N2Cc3ccc(S(=O)(=O)F)cc3C2=O)C(=O)N1` (configuration not stated), for which the CLint scaled in data set [1] is 13.7 mL/min/kg; in data set [2], under 9.6 mL/min/kg.

Take `O=C1CCC(N2Cc3ccc(OS(=O)(=O)F)cc3C2=O)C(=O)N1` (configuration not stated): the CLint scaled in data set [1] was under 6.1 mL/min/kg; in data set [2] it was under 9.6 mL/min/kg.

For the origin of these results see ChEMBL document CHEMBL5223136, “Covalent drugs targeting histidine - an unexploited opportunity?” (RSC Med Chem, 2022).
